{
  "source": "patent US4353912A",
  "about": "“N-Haloalkyl nor apomorphines and method of inactivating dopamine receptor sites and enhancing dopaminergic activity therewith” (Northeastern University, priority 1980, dated 1982)",
  "key": {"[1]": {"molecular_target": "T1, dopamine receptors (^3 H-NPA binding sites) (Rattus norvegicus, UniProt P61169)", "T1 sequence (P61169 whole entry)": "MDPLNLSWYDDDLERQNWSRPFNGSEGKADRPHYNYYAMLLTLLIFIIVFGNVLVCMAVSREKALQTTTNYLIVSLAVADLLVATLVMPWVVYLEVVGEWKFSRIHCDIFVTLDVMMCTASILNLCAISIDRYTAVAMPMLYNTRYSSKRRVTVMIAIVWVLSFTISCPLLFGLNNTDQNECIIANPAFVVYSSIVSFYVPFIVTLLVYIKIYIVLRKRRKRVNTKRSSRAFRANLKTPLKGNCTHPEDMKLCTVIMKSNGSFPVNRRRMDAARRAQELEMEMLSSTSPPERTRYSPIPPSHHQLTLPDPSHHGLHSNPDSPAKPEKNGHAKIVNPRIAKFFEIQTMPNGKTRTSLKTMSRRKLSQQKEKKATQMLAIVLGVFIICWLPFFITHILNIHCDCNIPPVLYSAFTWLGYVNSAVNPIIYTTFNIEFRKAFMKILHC"}, "[2]": {"molecular_target": "T1, dopamine receptors (^3 H-NPA binding sites)", "test": "In vitro inhibition of ^3 H-NPA binding to rat striatal homogenate", "conditions": "for reversal of inhibition of ^3 H-NPA binding by washing of membranes: FIG. 8"}, "dopamine receptors [3]": {"tested_on": "dopamine receptors", "test": "Apomorphine-induced climbing in mice (climbing index)", "assay_type": "in vivo", "conditions": "for effect on apomorphine climbing: 10 mg/kg s.c.; for effect on apomorphine climbing index: apomorphine 1.0 mg/kg s.c.", "description": "Climbing behavior was measured by placing mice in individual cages (20×15×15 cm) lined with wire mesh. A \"climbing index\", i.e., the percentage of time spent climbing during the 30-minute period following the first climb, was determined."}, "dopamine receptors [4]": {"tested_on": "dopamine receptors", "test": "Circling/asymmetry in rats after unilateral intrastriatal injection and apomorphine challenge", "assay_type": "in vivo, rat", "description": "A further behavioral model utilized rats (male, Sprague-Dawley, 300±25 g). […] Bilateral guide cannulae were chronically implanted in the rats, using standard stereotaxic techniques, to allow drug/vehicle injection at the center of the caudate-putamen complex (Ant. 8.0, Lat. +3.0, Vert. +1.5, De Groot, 1959). Fourteen days after cannulation, the animals were manually restrained and the drug in a solvent vehicle was injected in a volume of 4 μliters (1 μliter/min) into the right and left striata, respectively. The 4 μliter contained dosages of 10 μg or 40 μg of the drug.\nThe resting asymmetry was particularly evident when the animals were disturbed and was also noted two and five days after the injection of the (-)N-(2-chloroethyl)norapomorphine. By the seventh day the ipsilateral asymmetry was variable and was not apparent by the fourteenth day.\nAgain, as in the circling experiments with the mice, it was apparent that the dopamine inhibitory actions of the drug endured for 2 to 4 days. The recovery of the behavioral response possibly reflects the resynthesis of dopamine receptors."}, "[5]": {"molecular_target": "T2, dopamine-sensitive adenylate cyclase (Rattus norvegicus, UniProt P18901)", "T2 sequence (P18901 whole entry)": "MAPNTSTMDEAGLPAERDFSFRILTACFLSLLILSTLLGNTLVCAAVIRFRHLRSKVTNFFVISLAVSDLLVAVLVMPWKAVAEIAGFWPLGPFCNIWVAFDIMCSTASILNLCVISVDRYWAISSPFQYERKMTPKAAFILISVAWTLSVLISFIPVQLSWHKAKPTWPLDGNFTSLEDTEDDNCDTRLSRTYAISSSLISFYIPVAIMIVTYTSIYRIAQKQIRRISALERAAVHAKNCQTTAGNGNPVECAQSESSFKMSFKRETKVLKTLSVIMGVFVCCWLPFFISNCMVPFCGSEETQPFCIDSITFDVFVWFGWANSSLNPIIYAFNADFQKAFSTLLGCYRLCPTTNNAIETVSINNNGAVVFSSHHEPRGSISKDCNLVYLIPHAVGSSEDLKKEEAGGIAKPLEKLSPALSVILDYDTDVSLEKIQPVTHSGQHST", "T2 sequence (Q04400 whole entry partner)": "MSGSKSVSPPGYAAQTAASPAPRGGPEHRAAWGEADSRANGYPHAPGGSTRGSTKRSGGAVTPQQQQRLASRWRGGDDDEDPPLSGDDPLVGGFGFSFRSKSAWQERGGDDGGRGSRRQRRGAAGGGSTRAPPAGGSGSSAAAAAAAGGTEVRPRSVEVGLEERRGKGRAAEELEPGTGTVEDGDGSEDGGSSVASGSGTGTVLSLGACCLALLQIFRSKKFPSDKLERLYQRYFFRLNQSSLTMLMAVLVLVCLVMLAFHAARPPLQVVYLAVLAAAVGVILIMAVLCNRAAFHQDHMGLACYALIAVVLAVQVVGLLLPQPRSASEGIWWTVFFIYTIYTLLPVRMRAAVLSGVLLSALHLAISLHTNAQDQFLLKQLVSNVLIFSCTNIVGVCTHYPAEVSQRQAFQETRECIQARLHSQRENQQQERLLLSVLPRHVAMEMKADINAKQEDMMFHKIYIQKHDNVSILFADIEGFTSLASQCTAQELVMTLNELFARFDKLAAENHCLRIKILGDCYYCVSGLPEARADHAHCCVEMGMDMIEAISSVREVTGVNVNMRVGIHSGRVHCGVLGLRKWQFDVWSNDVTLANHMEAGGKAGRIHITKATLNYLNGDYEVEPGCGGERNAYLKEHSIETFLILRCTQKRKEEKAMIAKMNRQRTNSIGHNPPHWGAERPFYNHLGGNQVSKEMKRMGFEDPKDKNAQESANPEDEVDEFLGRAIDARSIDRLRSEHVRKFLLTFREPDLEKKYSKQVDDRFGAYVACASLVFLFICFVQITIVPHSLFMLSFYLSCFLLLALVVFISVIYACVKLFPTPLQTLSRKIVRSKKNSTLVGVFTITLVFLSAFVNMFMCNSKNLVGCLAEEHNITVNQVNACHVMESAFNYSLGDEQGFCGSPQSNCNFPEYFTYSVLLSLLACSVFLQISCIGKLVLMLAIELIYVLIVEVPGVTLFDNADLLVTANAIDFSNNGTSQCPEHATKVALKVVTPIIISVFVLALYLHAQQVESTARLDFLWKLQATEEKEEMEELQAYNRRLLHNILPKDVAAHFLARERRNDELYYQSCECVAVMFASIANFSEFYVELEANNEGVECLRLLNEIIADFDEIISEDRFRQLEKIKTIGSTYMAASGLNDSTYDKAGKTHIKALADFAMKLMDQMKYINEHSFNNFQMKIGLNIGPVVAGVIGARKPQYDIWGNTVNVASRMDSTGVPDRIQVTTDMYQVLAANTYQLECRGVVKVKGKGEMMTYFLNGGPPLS", "test": "Inhibition of activation of dopamine-sensitive adenylate cyclase in rat striatal homogenates", "assay_type": "biochemical", "description": "Washed tissue, including one specimen without NCA as a control, was then incubated with zero or 50 μM of dopamine in the presence of an excess of adenosine triphosphate for 2.5 minutes at 37° and the level of cyclic adenosine monophosphate in the incubation mixture with and without dopamine was assayed by a protein binding method. The increase in cyclic adenosine monophosphate levels due to the dopamine was estimated for all conditions."}, "dopamine receptors [6]": {"tested_on": "dopamine receptors", "test": "Apomorphine-induced stereotypy", "assay_type": "in vivo", "conditions": "10 mg/kg pretreatment; apomorphine 1 mg/kg", "excerpt": "Apomorphine-induced behavioral characteristics in the rodent are considered to involve dopamine agonist action on striatal and mesolimbic dopamine receptors. […] Among such induced behavioral characteristics are circling, climbing and stereotypy."}, "[7]": {"tested_on": "striatal dopamine receptors", "test": "Apomorphine-induced circling in unilateral striatectomized mice", "assay_type": "in vivo", "description": "Among such induced behavioral characteristics are circling, climbing and stereotypy.\nMale albino mice in the weight range of 35-40 grams were used in the determination of circling behavior. The mice were prepared for circling experiments using standard stereotaxic techniques to place unilateral electrolesions in the right caudate-putamen (1.0 mm anterior to bregma, 2.0 mm lateral and 3.5 mm below the skull surface, 1.5 mA/15 s). […] Those mice circling less than 6 revolutions every 2 minutes were excluded from subsequent studies."}, "[8]": {"molecular_target": "T2, dopamine-sensitive adenylate cyclase", "conditions": "Walton et al., Eur. J. Pharmacol. 52: 231 (1978); cited from earlier work"}},
  "note": "Counter-ions that a name gives are not always drawn.",
  "data": [
    {"smiles": "CCCN1CCc2cccc3c2C1Cc1ccc(O)c(O)c1-3", "note": "(single isomer, unassigned) [^3 H-NPA, ^3 H-N-n-propylnorapomorphine, reference compound]", "values": [
      {"measurement": "density of ^3 H-NPA binding sites", "setting": "[1]", "result": "approximately 180 fmol/mg protein"},
      {"measurement": "Bmax", "setting": "[2]", "result": 190, "unit": "fmol/mg protein"}
    ]},
    {"smiles": "COc1ccc2c(c1OC(C)=O)-c1cc(O)cc3c1C(C2)N(C(=O)CN(CCCl)CCCl)CC3", "note": "(centres unmarked) [6-[2-bis(2-chloroethyl)amino]acetyl-11-acetoxy-2-hydroxy-10-methoxy-apoporphine hemihydrate, reference compound]", "values": [
      {"measurement": "effect on apomorphine climbing", "setting": "dopamine receptors [3]; four-hour pretreatment", "result": "failed to modify apomorphine climbing"}
    ]},
    {"smiles": "COc1ccc2c(c1O)-c1cccc3c1[C@@H](C2)N(CCCl)CC3", "note": "[(-)N-(2-chloroethyl)norapocodiene.HCl, reference compound]", "values": [
      {"measurement": "effect on apomorphine climbing", "setting": "dopamine receptors [3]; four-hour pretreatment", "result": "failed to modify apomorphine climbing"}
    ]},
    {"smiles": "OCCN1CCc2cccc3c2[C@H]1Cc1ccc(O)c(O)c1-3", "note": "[(-)N-(2-hydroxyethyl)norapomorphine.HCl]", "values": [
      {"measurement": "effect on apomorphine climbing", "setting": "dopamine receptors [3]; 90-minute pretreatment", "result": "failed to modify apomorphine climbing"},
      {"measurement": "reversal of inhibition of ^3 H-NPA binding by washing of membranes", "setting": "[2]; 5×10^-7 M", "result": "reversed"}
    ]},
    {"smiles": "Oc1ccc2c(c1O)-c1cccc3c1[C@@H](C2)N(CCCl)CC3", "note": "[NCA]", "values": [
      {"measurement": "circling on apomorphine challenge", "setting": "dopamine receptors [4]; 40 μg intrastriatal, apomorphine 0.5 mg/kg s.c., four hours and two days, to a lesser extent 5 days after administration", "result": "precipitated a clear circling behavior"},
      {"measurement": "ipsilateral asymmetry/circling movements after unilateral injection into the caudate-putamen", "setting": "dopamine receptors [4]; 10 and 40 μg intrastriatal", "result": "induced ipsilateral asymmetry/circling movements within an hour"},
      {"measurement": "resting ipsilateral asymmetry", "setting": "dopamine receptors [4]; fourteenth day", "result": "not apparent"},
      {"measurement": "resting ipsilateral asymmetry", "setting": "dopamine receptors [4]; seventh day", "result": "variable"},
      {"measurement": "resting ipsilateral asymmetry", "setting": "dopamine receptors [4]; two and five days after injection", "result": "noted"},
      {"measurement": "percent dopamine stimulation of cAMP production at 10 µM", "setting": "[5]; 10 min, NCA 10 μM, 10 min 37° C. preincubation, washed, 50 μM dopamine", "result": 84, "unit": "%"},
      {"measurement": "percent dopamine stimulation of cAMP production at 30 µM", "setting": "[5]; 10 min, NCA 30 μM, 10 min 37° C. preincubation, washed, 50 μM dopamine", "result": 44, "unit": "%"},
      {"measurement": "percent dopamine stimulation of cAMP production at 75 µM", "setting": "[5]; 10 min, NCA 75 μM, 10 min 37° C. preincubation, washed, 50 μM dopamine", "result": 8, "unit": "%"},
      {"measurement": "inhibition at 10 µM", "setting": "[5]; NCA 10 μM", "result": 16, "unit": "%"},
      {"measurement": "inhibition at 30 µM", "setting": "[5]; NCA 30 μM", "result": 56, "unit": "%"},
      {"measurement": "inhibition at 75 µM", "setting": "[5]; NCA 75 μM", "result": 92, "unit": "%"},
      {"measurement": "reduction of number of ^3 H-NPA binding sites", "setting": "[1]; 40 μg NCA intrastriatal, day 2", "result": "approximately 50%"},
      {"measurement": "number of sites available for ^3 H-NPA binding", "setting": "[1]; 40 μg NCA intrastriatal, days 7 and 14", "result": "returned to control values"},
      {"measurement": "effect on submaximal stereotypic effect of apomorphine (repetitive sniffing, periodic biting, continuous biting)", "setting": "dopamine receptors [6]", "result": "failed to modify"},
      {"measurement": "effect on apomorphine climbing index", "setting": "dopamine receptors [3]; 10 mg/kg i.p. pretreatment", "result": "reduced this index"},
      {"measurement": "effect on apomorphine climbing index", "setting": "dopamine receptors [3]; 20 mg/kg i.p. pretreatment", "result": "greatly reduced"},
      {"measurement": "duration of reduction of climbing index", "setting": "dopamine receptors [3]; after i.p. administration", "result": "up to between four and five days"},
      {"measurement": "inhibition of apomorphine-induced circling", "setting": "[7]; 1.0 mg/kg s.c., apomorphine 0.5 mg/kg s.c., 4 hours to 7 days after administration", "result": "essentially no inhibition"},
      {"measurement": "reduction in circling", "setting": "[7]; higher dosage levels (2.0 or 4.0 mg/kg s.c.), after 2 days", "result": "still apparent"},
      {"measurement": "reduction in circling", "setting": "[7]; highest dosage level (4.0 mg/kg s.c.), after 5 days", "result": 39, "unit": "%"},
      {"measurement": "IC50", "setting": "[2]", "result": 1.8, "unit": "µM"},
      {"measurement": "reversal of inhibition of ^3 H-NPA binding by washing of membranes", "setting": "[2]; 5×10^-6 M", "result": "not reversed"},
      {"measurement": "reversal of prevention of ^3 H-NPA binding by washing", "setting": "[2]; NCA 10^-5 M, repeated washing", "result": "not reversed by repeated washing"},
      {"measurement": "inhibition of ^3 H-NPA binding in the presence of blocking agents", "setting": "[2]; high concentrations of phentolamine and propranolol, NCA 3×10^-5 M", "result": "also apparent"}
    ]},
    {"smiles": "CN1CCc2cccc3c2[C@H]1Cc1ccc(O)c(O)c1-3", "note": "[apomorphine]", "values": [
      {"measurement": "circling behavior", "setting": "[7]; 0.25-1 mg/kg apomorphine, dose-dependent", "result": "2-10 revolutions every 12 minutes"}
    ]},
    {"smiles": "CC(COc1ccccc1)N(CCCl)Cc1ccccc1", "note": "(centres unmarked) [phenoxybenzamine]", "values": [
      {"measurement": "action on dopamine-sensitive adenylate cyclase", "setting": "[8]", "result": "irreversible blocking action"}
    ]}
  ]
}
